From patent US12679878B2, “CRF2 receptor agonists and their use in therapy” (SANOFI, priority 2020, dated 2026)
Starred links: 1 amine or outer side, 2 acyl side, 3 side chain; linkers in the order of their positions; H or OH if unused. Non-standard residues stand in square brackets, D forms with d. Residues, ends and D or L forms follow the SMILES beside them. Groups on a side chain read outwards from the residue. *: point of attachment. C20 diacid = O=C(O)CCCCCCCCCCCCCCCCCCC(=O)*; C18 diacid = O=C(O)CCCCCCCCCCCCCCCCC(=O)*; γGlu = O=C(O)[C@H](CCC(=O)[*:2])N[*:1]; AEEA = NCCOCCOCC(=O)O; Aib = CC(C)(N)C(=O)O

What was measured:
recombinant human CRF2 = target: T1, recombinant human CRF2 (Homo sapiens, UniProt Q13324); test: CRF2a (h) agonist radioligand binding, [125]sauvagine, HEK cell membranes (Example 11); conditions: competition with [125]sauvagine 0.1 nM
T1 construct: expressed in transfected cells; host or cells: HEK
T1 sequence (Q13324 1-411): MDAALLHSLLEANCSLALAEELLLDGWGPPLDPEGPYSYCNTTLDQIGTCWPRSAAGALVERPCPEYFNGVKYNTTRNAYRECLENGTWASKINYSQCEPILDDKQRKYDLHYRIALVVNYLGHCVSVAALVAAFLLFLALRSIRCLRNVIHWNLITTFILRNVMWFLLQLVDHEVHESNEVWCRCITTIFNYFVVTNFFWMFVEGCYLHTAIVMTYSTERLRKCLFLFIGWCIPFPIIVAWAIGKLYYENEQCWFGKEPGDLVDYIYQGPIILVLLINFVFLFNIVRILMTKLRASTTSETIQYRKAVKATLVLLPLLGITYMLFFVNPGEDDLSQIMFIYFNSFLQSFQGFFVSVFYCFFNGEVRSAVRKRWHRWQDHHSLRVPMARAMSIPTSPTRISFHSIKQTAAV
Method: Receptor binding of the compounds was assessed using a CRF2a (h) (agonist radioligand) assay.
HEK cells expressing recombinant human CRF2 were used as a source of receptor for membrane preparation.
IC50 values (concentration causing a half-maximal inhibition of control specific binding) and Hill coefficients (nH) were determined by non-linear regression analysis of the competition curves generated with mean replicate values using Hill equation curve fitting. The inhibition constants (Ki) were calculated using the Cheng Prusoff equation [Ki=IC50/(1+L/KD) where L is the concentration of radioligand in the assay, and KD is the affinity of the radioligand for the receptor). A Scatchard plot was used to determine the KD.

[1] = Pharmacokinetic properties in rats, i.v. or s.c. (Example 16); format: in vivo, SD rat; conditions: Rat
Method: (§1) The pharmacokinetic properties of exemplary peptides SEQ ID NO: 35 and SEQ ID NO: 24 were assessed in mice and rats.
(§2) The test compound was administered in a suitable buffer system (PBS buffer solution at pH 7.4, or DPBS solution) at concentrations of 0.05, 0.1, 0.5 or 1 mg/ml depending on the dose, species and administration volume. Female C57BI/6 mice and male SD rate were dosed 0.1 mg/kg or 0.3 mg/kg intravenously or subcutaneously. The animals were sacrificed, and blood samples were collected after 0.08, 0.25, 0.5, 1, 2, 4, 8, 24, 32, and 48 hours post-intravenous administration and 0.25, 0.5, 1, 2, 4, 8, 24, 32, and 48 hours post-subcutaneous administration, respectively. Plasma samples were analysed after protein precipitation via liquid chromatography mass spectrometry (LC/MS). Pharmacokinetic parameters and half-life were calculated using Phoenix-WinNonlin 8.1 using a non-compartmental model and linear trapezoidal interpolation calculation.

[2] = Pharmacokinetic properties in mice, i.v. or s.c. (Example 16); format: in vivo, C57BI/6 mice; conditions: female, C57BL/6, plasma, Mouse
Method: as §1, §2

endogenous human CRF2 = target: T2, endogenous human CRF2 (Homo sapiens, UniProt Q13324); test: cAMP agonist effect in NCI-H82 cells expressing endogenous human CRF2 (Example 10); format: cell-based; conditions: cAMP HTRF, 5 min activation
T2 construct: endogenous in cells; host or cells: NCI-H82
T2 sequence (Q13324 1-411): T1 sequence (Q13324 1-411)
Method: The agonist effect of the compounds was assessed in NCI-H82 cells expressing endogenous human CRF2.
NCI-H82 cells in suspension were plated in low-volume 384-well plates at a density of 30000 cells/well in 5 μl of test medium (RPMI+1 mM IBMX). The plates were briefly centrifuged at 800 rpm to allow the cell suspension to move to the bottom of the wells and then incubated for 2 hours at 37° C. in 5% CO2. 5 μl of test compounds at appropriate concentrations (10-11 to 3×10-7) diluted in test medium were then transferred in 384 wells plates. After 5 min of activation, the reaction was stopped by addition of HTRF revelation reagents with a multidrop dispenser. The two reagents were 5 μl/well of Anti-CAMP-cryptate diluted 20-fold in conjugate and lysis buffer and 5 μl/well of cAMP-D2 diluted 20-fold in conjugate and lysis buffer. After one-hour incubation at room temperature in the dark, the plates were read on a Clariostar apparatus.

[3] = male, Sprague-Dawley (SD), plasma, iv, 0.1 mg/kg i.v.
[4] = male, Sprague-Dawley (SD), plasma, sc, 0.1 mg/kg s.c.

SMILES | nH (Hill coefficient) (recombinant human CRF2) | AUClast ([1]; 0.1 mg/kg i.v.) [ng·h/mL] | clearance ([1]; male, SD, plasma, iv, 0.1 mg/kg i.v., read-out: CI (converted)) [mL/min/kg] | bioavailability ([1]; male, SD, plasma, sc, 0.1 mg/kg s.c.) [%] | Cmax [1, 3] [ng/mL] | half-life [1, 3] [h] | AUC(0-t) [1, 4] [ng·h/mL] | Cmax [1, 4] [ng/mL] | half-life [1, 4] [h] | AUC(0-t) ([2]; iv, 0.3 mg/kg i.v.) [ng·h/mL] | Cmax ([2]; iv, 0.3 mg/kg i.v.) [ng/mL] | half-life ([2]; iv, 0.3 mg/kg i.v.) [h] | clearance ([2]; iv, 0.3 mg/kg i.v., read-out: CI (converted)) [mL/min/kg] | AUC(0-t) ([2]; sc, 0.1 mg/kg s.c.) [ng·h/mL] | Cmax ([2]; sc, 0.1 mg/kg s.c.) [ng/mL] | half-life ([2]; sc, 0.1 mg/kg s.c.) [h] | EC50 (endogenous human CRF2) [nM]
CC[C@H](C)[C@H](N)C(=O)N[C@H](C(=O)N[C@@H](CC(C)C)C(=O)N[C@@H](CO)C(=O)N[C@@H](CC(C)C)C(=O)N[C@@H](CC(=O)O)C(=O)N[C@H](C(=O)N1CCC[C@H]1C(=O)N[C@H](C(=O)N[C@@H](CCCCN)C(=O)N[C@@H](CC(C)C)C(=O)N[C@@H](CCCCNC(=O)COCCOCCNC(=O)COCCOCCNC(=O)CC[C@H](NC(=O)CCCCCCCCCCCCCCCCC(=O)O)C(=O)O)C(=O)N[C@@H](CCCCN)C(=O)N[C@H](C(=O)N[C@@H](CC(C)C)C(=O)N[C@@H](CC(C)C)C(=O)N[C@@H](CCC(=O)O)C(=O)N[C@@H](CCC(N)=O)C(=O)N[C@@H](CCC(=O)O)C(=O)N[C@@H](CCCCN)C(=O)N[C@@H](CCC(N)=O)C(=O)N[C@@H](CCCCN)C(=O)N[C@@H](CCCCN)C(=O)N[C@@H](CCC(N)=O)C(=O)N[C@@H](CCCNC(=N)N)C(=O)N[C@@H](CCC(=O)O)C(=O)N[C@@H](CCC(N)=O)C(=O)N[C@@H](C)C(=O)N[C@@H](CCC(=O)O)C(=O)N[C@H](C(=O)N[C@@H](CC(N)=O)C(=O)N[C@@H](CCCCN)C(=O)N[C@@H](CCC(N)=O)C(=O)N[C@H](C(=O)N[C@@H](CC(C)C)C(=O)N[C@@H](C)C(=O)N[C@@H](CCC(N)=O)C(=O)N[C@H](C(N)=O)C(C)C)[C@@H](C)CC)[C@@H](C)O)[C@@H](C)CC)[C@@H](C)CC)C(C)C)C(C)C [compound 35] (H-IVLSLDVPIKLK([AEEA-AEEA-γGlu-C18 diacid])KILLEQEKQKKQREQAETNKQILAQV-NH2; N-terminus assumed) | 1.7 | 2790 | 0.597 | 45.8 | 1900 | 3 | 1200 | 131 | 6.1 | 23700 | 4150 | 6.4 | 0.21 | 18500 | 1410 | 5.5 | –
CC[C@H](C)[C@H](NC(=O)[C@H](CCC(N)=O)NC(=O)[C@H](CCC(=O)O)NC(=O)[C@H](CC(C)C)NC(=O)[C@H](CC(C)C)NC(=O)[C@H](CCC(N)=O)NC(=O)[C@H](CCCCN)NC(=O)[C@H](CC(N)=O)NC(=O)[C@H](CCCCN)NC(=O)[C@H](CCC(=O)O)NC(=O)[C@H](C)NC(=O)[C@H](CCC(N)=O)NC(=O)[C@H](CCC(N)=O)NC(=O)[C@H](CCCNC(=N)N)NC(=O)[C@H](CCC(=O)O)NC(=O)[C@H](CCCCN)NC(=O)[C@H](CCCCN)NC(=O)[C@H](CCC(N)=O)NC(=O)[C@H](CCCCN)NC(=O)[C@H](CCC(N)=O)NC(=O)[C@H](CCC(N)=O)NC(=O)[C@H](CCCCN)NC(=O)[C@H](CC(C)C)NC(=O)[C@H](CC(C)C)NC(=O)[C@@H](NC(=O)[C@H](CCC(N)=O)NC(=O)[C@H](CCCCNC(=O)COCCOCCNC(=O)COCCOCCNC(=O)CC[C@H](NC(=O)CCCCCCCCCCCCCCCCCCC(=O)O)C(=O)O)NC(=O)[C@@H](NC(=O)[C@H](CCCCN)NC(=O)[C@@H](NC(=O)[C@@H]1CCCN1C(=O)[C@@H](NC(=O)[C@H](CC(=O)O)NC(=O)[C@H](CC(C)C)NC(=O)[C@H](CO)NC(=O)[C@H](CC(C)C)NC(=O)[C@@H](NC(=O)[C@@H](N)Cc1ccccc1)[C@@H](C)O)C(C)C)[C@@H](C)O)[C@@H](C)CC)[C@@H](C)CC)C(N)=O [compound 59] (H-FTLSLDVPTKIK([AEEA-AEEA-γGlu-C20 diacid])QILLKQQKQKKERQQAEKNKQLLEQI-NH2) | 0.6 | – | – | – | – | – | – | – | – | – | – | – | – | – | – | – | –
CC[C@H](C)[C@H](N)C(=O)N[C@H](C(=O)N[C@@H](CC(C)C)C(=O)N[C@@H](CO)C(=O)N[C@@H](CC(C)C)C(=O)N[C@@H](CC(=O)O)C(=O)N[C@@H](C(=O)N1CCC[C@H]1C(=O)N[C@H](C(=O)N[C@@H](CCCCN)C(=O)N[C@@H](CC(C)C)C(=O)N[C@@H](CCCCNC(=O)COCCOCCNC(=O)COCCOCCNC(=O)CC[C@H](NC(=O)CCCCCCCCCCCCCCCCC(=O)O)C(=O)O)C(=O)N[C@@H](CCC(N)=O)C(=O)N[C@H](C(=O)N[C@@H](CC(C)C)C(=O)N[C@@H](CC(C)C)C(=O)N[C@@H](CCCCN)C(=O)N[C@@H](CCC(N)=O)C(=O)N[C@@H](CCC(=O)O)C(=O)N[C@@H](CCCNC(=N)N)C(=O)N[C@@H](CCC(N)=O)C(=O)N[C@@H](CCCCN)C(=O)NC(C)(C)C(=O)N[C@@H](CCC(N)=O)C(=O)N[C@@H](CCCNC(=N)N)C(=O)N[C@@H](CCC(N)=O)C(=O)N[C@@H](CCC(N)=O)C(=O)N[C@@H](C)C(=O)N[C@@H](CCC(=O)O)C(=O)N[C@@H](CCCCN)C(=O)N[C@@H](CC(N)=O)C(=O)N[C@@H](CCCCN)C(=O)N[C@@H](CCC(N)=O)C(=O)N[C@H](C(=O)N[C@@H](CC(C)C)C(=O)N[C@@H](C)C(=O)N[C@@H](CCC(N)=O)C(=O)N[C@H](C(N)=O)C(C)C)[C@@H](C)CC)[C@@H](C)CC)[C@@H](C)CC)C(C)C)C(C)C [compound 135] (H-IVLSLD[dV]PIKLK([AEEA-AEEA-γGlu-C18 diacid])QILLKQERQK[Aib]QRQQAEKNKQILAQV-NH2; N-terminus assumed) | – | – | – | – | – | – | – | – | – | – | – | – | – | – | – | – | 110
